# Results taken from patent US9771360B2, “Cyano-substituted imidazo[1,2-A]pyridinecarboxamides and their use” (Bayer Pharma Aktiengesellschaft, priority 2014, dated 2017).
# Target: T1, recombinant guanylate cyclase reporter cell line (Rattus norvegicus, UniProt P19686+P20595)
# T1 construct: expressed in transfected cells
# T1 sequence (P20595 1-619): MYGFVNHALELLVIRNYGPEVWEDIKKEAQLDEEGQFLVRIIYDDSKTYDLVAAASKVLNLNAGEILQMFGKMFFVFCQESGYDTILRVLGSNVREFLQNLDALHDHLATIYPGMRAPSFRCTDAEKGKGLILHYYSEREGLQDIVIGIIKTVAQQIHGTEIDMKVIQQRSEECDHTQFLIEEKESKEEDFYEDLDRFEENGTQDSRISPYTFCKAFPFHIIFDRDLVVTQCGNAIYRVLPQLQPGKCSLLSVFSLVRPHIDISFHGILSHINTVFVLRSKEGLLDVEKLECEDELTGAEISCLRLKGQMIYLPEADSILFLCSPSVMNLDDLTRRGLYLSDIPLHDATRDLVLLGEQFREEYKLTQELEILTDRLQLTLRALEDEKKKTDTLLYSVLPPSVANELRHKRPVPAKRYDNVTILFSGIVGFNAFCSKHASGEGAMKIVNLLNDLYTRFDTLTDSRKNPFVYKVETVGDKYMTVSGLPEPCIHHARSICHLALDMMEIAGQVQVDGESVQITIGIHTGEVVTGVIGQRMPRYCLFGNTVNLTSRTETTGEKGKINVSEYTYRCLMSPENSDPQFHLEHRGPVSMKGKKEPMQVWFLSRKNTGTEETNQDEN
# T1 sequence (P19686 1-690): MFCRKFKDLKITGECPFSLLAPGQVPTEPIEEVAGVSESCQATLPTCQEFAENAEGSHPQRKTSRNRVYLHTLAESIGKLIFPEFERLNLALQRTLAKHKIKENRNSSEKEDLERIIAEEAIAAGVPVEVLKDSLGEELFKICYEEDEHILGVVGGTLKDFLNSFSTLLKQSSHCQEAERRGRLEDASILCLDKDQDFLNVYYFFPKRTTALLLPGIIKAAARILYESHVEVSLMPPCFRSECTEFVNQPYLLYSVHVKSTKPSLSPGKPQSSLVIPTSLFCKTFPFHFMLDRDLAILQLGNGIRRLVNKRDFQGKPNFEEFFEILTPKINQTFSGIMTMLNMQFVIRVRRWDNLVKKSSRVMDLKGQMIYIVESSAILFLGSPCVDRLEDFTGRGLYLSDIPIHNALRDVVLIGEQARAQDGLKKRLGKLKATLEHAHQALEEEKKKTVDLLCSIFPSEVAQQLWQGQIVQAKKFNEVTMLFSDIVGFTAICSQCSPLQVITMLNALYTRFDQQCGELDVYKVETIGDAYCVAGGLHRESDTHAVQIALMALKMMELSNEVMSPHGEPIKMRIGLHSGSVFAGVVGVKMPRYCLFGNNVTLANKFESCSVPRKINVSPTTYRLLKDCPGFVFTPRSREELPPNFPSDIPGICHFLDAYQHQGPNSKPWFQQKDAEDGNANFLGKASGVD
# Assay: Effect on a recombinant guanylate cyclase reporter cell line (B-2)
# Type: cell-based
# Settings: MEC = minimum effective concentration; in some cases mean values from individual determinations
# Method: B-2. Effect on a Recombinant Guanylate Cyclase Reporter Cell Line
# The cellular activity of the compounds according to the invention is determined using a recombinant guanylate cyclase reporter cell line, as described in F. Wunder et al., Anal. Biochem. 339, 104-112 (2005).
# Representative MEC values (MEC=minimum effective concentration) for the compounds of the invention are shown in the table below (in some cases as mean values from individual determinations): […]
row,MEC [µM],SMILES
1,1,"Cc1cc(OCc2c(F)cccc2F)c2nc(C)c(C(=O)NC(C#N)C(N)=O)n2c1 (racemic) [Example 34, rac-N-(2-amino-1-cyan-2-oxoethyl)-8-[(2,6-difluorobenzyl)oxy]-2,6-dimethylimidazo[1,2-a]pyridine-3-carboxamide]"
2,1,"CCOc1ccc(NC(=O)c2c(C)nc3c(OCc4c(F)cccc4F)cc(C)cn23)cc1C#N [Example 32, N-(3-Cyano-4-ethoxyphenyl)-8-[(2,6-difluorobenzyl)oxy]-2,6-dimethylimidazo[1,2-a]pyridine-3-carboxamide]"
3,1,"Cc1cc(OCc2c(F)cccc2F)c2nc(C)c(C(=O)NCC(N)CC#N)n2c1 (single isomer, unassigned) [Example 42, ent-N-(2-Amino-3-cyanopropyl)-8-[(2,6-difluorobenzyl)oxy]-2,6-dimethylimidazo[1,2-a]pyridine-3-carboxamide]"
4,0.3,"Cc1cc(OCc2c(F)cccc2F)c2nc(C)c(C(=O)NC3CNCC(C#N)C3)n2c1 (stereo not shown) [Example 38, N-(5-Cyanopiperidin-3-yl)-8-[(2,6-difluorobenzyl)oxy]-2,6-dimethylimidazo[1,2-a]pyridine-3-carboxamide]"
5,3,"Cc1cc(OCc2c(F)cccc2F)c2nc(C)c(C(=O)NCC(N)CCCC#N)n2c1 (single isomer, unassigned) [Example 46, ent-N-(2-Amino-5-cyanopentyl)-8-[(2,6-difluorobenzyl)oxy]-2,6-dimethylimidazo[1,2-a]pyridine-3-carboxamide]"
6,1,"Cc1cc(OCc2c(F)cccc2F)c2nc(C)c(C(=O)Nc3ccc(CC#N)cc3)n2c1 [Example 36, N-[4-(cyanomethyl)phenyl]-8-[(2,6-difluorobenzyl)oxy]-2,6-dimethylimidazo[1,2-a]pyridine-3-carboxamide]"
7,1,"Cc1nc2c(OCc3c(F)cccc3F)cc(Cl)cn2c1C(=O)NC(C#N)c1ccc(Cl)cc1 (racemic) [Example 29, rac-6-chloro-N-[(4-chlorophenyl)(cyano)methyl]-8-[(2,6-difluorobenzyl)oxy]-2-methylimidazo[1,2-a]pyridine-3-carboxamide]"
8,10,"Cc1cc(OCC2CC(F)(F)C2)c2nc(C)c(C(=O)NC(C#N)c3ccc(Cl)cc3)n2c1 (racemic) [Example 31, rac-N-[(4-chlorophenyl)(cyano)methyl]-8-[(3,3-difluorocyclobutyl)methoxy]-2,6-dimethylimidazo[1,2-a]pyridine-3-carboxamide]"
9,3,"Cc1cc(OCc2c(F)ccc(C3CC3)c2F)c2nc(C)c(C(=O)NCC3CCC(C#N)CC3)n2c1 (stereo not shown) [Example 40, N-[(4-Cyanocyclohexyl)methyl]-8-[(3-cyclopropyl-2,6-difluorobenzyl)oxy]-2,6-dimethylimidazo[1,2-a]pyridine-3-carboxamide]"
10,0.3,"CCc1nc2c(OCc3c(F)cccc3F)cc(C)cn2c1C(=O)NC(C#N)c1ccc(Cl)cc1 (racemic) [Example 27, rac-N-[(4-chlorophenyl)(cyano)methyl]-8-[(2,6-difluorobenzyl)oxy]-2-ethyl-6-methylimidazo[1,2-a]pyridine-3-carboxamide]"
11,1,"Cc1cc(OCc2c(F)cccc2F)c2nc(C)c(C(=O)NCC(N)CCCC#N)n2c1 (single isomer, unassigned) [Example 47, ent-N-(2-Amino-5-cyanopentyl)-8-[(2,6-difluorobenzyl)oxy]-2,6-dimethylimidazo[1,2-a]pyridine-3-carboxamide]"

# More lines, now with the values behind:
row,SMILES,MEC [µM]
1,"Cc1cc(OCc2c(F)cccc2F)c2nc(C)c(C(=O)NC3(C#N)CCC3)n2c1 [Example 5, N-(1-cyanocyclobutyl)-8-[(2,6-difluorobenzyl)oxy]-2,6-dimethylimidazo[1,2-a]pyridine-3-carboxamide]",0.03
2,"Cc1cc(OCc2c(F)cccc2F)c2nc(C)c(C(=O)NC(C)(C#N)C3CC3)n2c1 (racemic) [Example 6, rac-N-(1-cyano-1-cyclopropylethyl)-8-[(2,6-difluorobenzyl)oxy]-2,6-dimethylimidazo[1,2-a]pyridine-3-carboxamide]",0.1
3,"Cc1cc(OCc2c(F)ccc(F)c2F)c2nc(C)c(C(=O)NC(C#N)c3ccc(Cl)cc3)n2c1 (racemic) [Example 17, rac-N-[(4-Chlorophenyl)(cyano)methyl]-2,6-dimethyl-8-[(2,3,6-trifluorobenzyl)oxy]imidazo[1,2-a]pyridine-3-carboxamide]",0.3
4,"CCC(CC#N)NC(=O)c1c(C)nc2c(OCc3c(F)cccc3F)cc(C)cn12 (racemic) [Example 13, rac-N-(1-cyanobutan-2-yl)-8-[(2,6-difluorobenzyl)oxy]-2,6-dimethylimidazo[1,2-a]pyridine-3-carboxamide]",1
5,"Cc1cc(OCc2ncccc2F)c2nc(C)c(C(=O)NC(C#N)c3ccc(Cl)cc3)n2c1 (racemic) [Example 19, rac-N-[(4-chlorophenyl)(cyano)methyl]-8-[(3-fluoropyridin-2-yl)methoxy]-2,6-dimethylimidazo[1,2-a]pyridine-3-carboxamide]",1
6,"Cc1cc(OCc2c(F)cccc2F)c2nc(C)c(C(=O)NC3(C#N)CC3)n2c1 [Example 4, N-(1-cyanocyclopropyl)-8-[(2,6-difluorobenzyl)oxy]-2,6-dimethylimidazo[1,2-a]pyridine-3-carboxamide]",0.3
7,"N#CC(NC(=O)c1cnc2c(OCc3c(F)cccc3F)cccn12)c1ccc(Cl)cc1 (racemic) [Example 18, rac-N-[(4-chlorophenyl)(cyano)methyl]-8-[(2,6-difluorobenzyl)oxy]imidazo[1,2-a]pyridine-3-carboxamide]",10
8,"Cc1cc(OCc2c(F)cccc2F)c2nc(C)c(C(=O)NC(C)C#N)n2c1 (single isomer, unassigned) [Example 15, ent-N-(1-Cyanoethyl)-8-[(2,6-difluorobenzyl)oxy]-2,6-dimethylimidazo[1,2-a]pyridine-3-carboxamide]",0.3
9,"Cc1cc(OCc2c(F)cccc2F)c2nc(C)c(C(=O)NCCCCCC#N)n2c1 [Example 10, N-(5-cyanopentyl)-8-[(2,6-difluorobenzyl)oxy]-2,6-dimethylimidazo[1,2-a]pyridine-3-carboxamide]",0.1
10,"Cc1nc2c(OCC3CCCCC3)cccn2c1C(=O)NC(C#N)c1ccc(Cl)cc1 (racemic) [Example 20, rac-N-[(4-chlorophenyl)(cyano)methyl]-8-(cyclohexylmethoxy)-2-methylimidazo[1,2-a]pyridine-3-carboxamide]",1
11,"COc1ccc(F)c(COc2cc(C)cn3c(C(=O)NC(C#N)c4ccc(Cl)cc4)c(C)nc23)c1F (racemic) [Example 22, rac-N-[(4-chlorophenyl)(cyano)methyl]-8-[(2,6-difluoro-3-methoxybenzyl)oxy]-2,6-dimethylimidazo[1,2-a]pyridine-3-carboxamide]",3
12,"Cc1cc(OCc2c(F)cccc2F)c2nc(C)c(C(=O)NC(C)C#N)n2c1 (racemic) [Example 1, rac-N-(1-Cyanoethyl)-8-[(2,6-difluorobenzyl)oxy]-2,6-dimethylimidazo[1,2-a]pyridine-3-carboxamide]",0.55
13,"Cc1nc2c(OCc3ncccc3F)cccn2c1C(=O)NC(C#N)c1ccc(Cl)cc1 (racemic) [Example 21, rac-N-[(4-chlorophenyl)(cyano)methyl]-8-[(3-fluoropyridin-2-yl)methoxy]-2-methylimidazo[1,2-a]pyridine-3-carboxamide]",10
14,"Cc1cc(OCc2c(F)cccc2F)c2nc(C)c(C(=O)NCC3CCC(C#N)CC3)n2c1 (stereo not shown) [Example 12, N-[(4-cyanocyclohexyl)methyl]-8-[(2,6-difluorobenzyl)oxy]-2,6-dimethylimidazo[1,2-a]pyridine-3-carboxamide]",0.1
